Measured values published in a polymer gas permeability compilation.

Row | CH4 permeability [Barrer] | CO2 permeability [Barrer] | H2 permeability [Barrer] | N2 permeability [Barrer] | O2 permeability [Barrer] | Compound
1 | 810 | 3200 | 1400 | 400 | 660 | *C(=C(*)c1ccc2c(c1)C1(CC1)c1ccccc1-2)c1ccccc1 (repeat unit)
2 | 500 | 2100 | 900 | 190 | 460 | *C(=C(*)c1ccc2c(ccc3ccccc32)c1)c1ccc([Si](C)(C)C)cc1 (repeat unit)
3 | 1450 | 5300 | 2500 | 650 | 1300 | *C(=C(*)c1ccc2c(ccc3ccccc32)c1)c1ccccc1 (repeat unit)
4 | 490 | 3000 | 1700 | 210 | 580 | *C(=C(*)c1cccc(O)c1)c1ccc(C(C)(C)C)cc1 (repeat unit)
5 | 0.455 | 16.5 |  | 0.965 | 4.83 | *c1ccc(Oc2ccc(C3(c4ccc(Oc5ccc(N6C(=O)c7ccc(C(c8ccc9c(c8)C(=O)N(*)C9=O)(C(F)(F)F)C(F)(F)F)cc7C6=O)cc5)cc4)OC(=O)c4ccccc43)cc2)cc1 (repeat unit)
6 | 1.45 | 44 |  | 1.25 | 4.99 | *c1ccc(Oc2ccc(N3C(=O)c4cc(Oc5ccc(C)cc5)c(-c5cc6c(cc5Oc5ccc(C)cc5)C(=O)N(*)C6=O)cc4C3=O)cc2)cc1 (repeat unit)
7 | 0.18 | 9.6 | 19 | 0.27 | 1.6 | *c1ccc(Oc2ccc(N3C(=O)c4cc5c(cc4C3=O)S(=O)(=O)c3cc4c(cc3S5(=O)=O)C(=O)N(*)C4=O)cc2)cc1 (repeat unit)
8 | 0.407 | 20.6 | 44 | 0.797 | 4.21 | *c1ccc(Oc2ccc(N3C(=O)c4ccc(C(c5ccc6c(c5)C(=O)N(*)C6=O)(C(F)(F)F)C(F)(F)F)cc4C3=O)cc2)cc1 (repeat unit)
9 | 0.21 | 13.5 |  | 0.58 | 3.4 | *c1ccc(Oc2ccc(Oc3ccc(*)cc3)c3c2C2c4ccccc4C3c3ccccc32)cc1 (repeat unit)
10 | 0.13 | 2.88 | 8.35 | 0.13 | 0.83 | *c1ccc(Oc2ccc(S(=O)(=O)c3ccc(Oc4ccc(S(*)(=O)=O)cc4)cc3)cc2)cc1 (repeat unit)
11 | 0.41 | 25.9 | 36.8 | 0.78 | 4.89 | *c1ccc(Oc2ccc3ccccc3c2-c2c(Oc3ccc(N4C(=O)c5ccc(C(c6ccc7c(c6)C(=O)N(*)C7=O)(C(F)(F)F)C(F)(F)F)cc5C4=O)cc3C(F)(F)F)ccc3ccccc23)c(C(F)(F)F)c1 (repeat unit)
12 | 0.28 | 18.4 | 26.2 | 0.53 | 3.35 | *c1ccc(Oc2ccc3ccccc3c2-c2c(Oc3ccc(N4C(=O)c5ccc(C(c6ccc7c(c6)C(=O)N(*)C7=O)(C(F)(F)F)C(F)(F)F)cc5C4=O)cc3C)ccc3ccccc23)c(C)c1 (repeat unit)
13 | 0.0258 | 1.15 | 5.92 | 0.0454 | 0.31 | *c1ccc(Oc2cccc(-n3c(=O)c4cc5c(=O)n(*)c(=O)c5cc4c3=O)c2)cc1 (repeat unit)
14 | 0.0625 | 2.16 | 11.3 | 0.0499 | 0.348 | *c1ccc(S(=O)(=O)c2ccc(N3C(=O)c4ccc(-c5ccc6c(c5)C(=O)N(*)C6=O)cc4C3=O)cc2)cc1 (repeat unit)
15 | 0.0164 | 0.774 |  | 0.022 |  | *c1ccc(Sc2ccc(N3C(=O)c4ccc(-c5ccc6c(c5)C(=O)N(*)C6=O)cc4C3=O)cc2)cc1 (repeat unit)
16 | 0.22 | 8.37 |  | 0.37 | 1.72 | *c1ccc(Sc2ccc(Sc3ccc(Sc4ccc(N5C(=O)c6ccc(C(c7ccc8c(c7)C(=O)N(*)C8=O)(C(F)(F)F)C(F)(F)F)cc6C5=O)cc4)cc3)cc2)cc1 (repeat unit)
17 | 0.09 | 4.32 | 5.95 | 0.14 | 0.98 | *c1ccc2c(-c3c(O)ccc4cc(N5C(=O)c6ccc(C(c7ccc8c(c7)C(=O)N(*)C8=O)(C(F)(F)F)C(F)(F)F)cc6C5=O)ccc34)c(O)ccc2c1 (repeat unit)
18 | 0.03 | 1.87 | 2.72 | 0.05 | 0.35 | *c1ccc2c(-c3c(O)ccc4cc(N5C(=O)c6ccc(Oc7ccc8c(c7)C(=O)N(*)C8=O)cc6C5=O)ccc34)c(O)ccc2c1 (repeat unit)

Row | CH4 permeability [Barrer] | CO2 permeability [Barrer] | H2 permeability [Barrer] | N2 permeability [Barrer] | O2 permeability [Barrer] | Compound
19 | 0.08 | 3.55 | 4.67 | 0.15 | 0.92 | *c1ccc2c(-c3c(OC(C)=O)ccc4cc(N5C(=O)c6ccc(C(=O)c7ccc8c(c7)C(=O)N(*)C8=O)cc6C5=O)ccc34)c(OC(C)=O)ccc2c1 (repeat unit)
20 | 0.05 | 2.38 | 3.18 | 0.1 | 0.61 | *c1ccc2c(-c3c(OC(C)=O)ccc4cc(N5C(=O)c6ccc(Oc7ccc8c(c7)C(=O)N(*)C8=O)cc6C5=O)ccc34)c(OC(C)=O)ccc2c1 (repeat unit)
21 | 46 | 1800 | 1990 | 85 | 421 | *c1ccc2c(c1)-c1nc3ccc(-c4ccc5c(c4)nc4n5C(=O)c5cc(C(c6ccc(-c7nc8cc(C(c9ccc%10oc(-c%11ccc(C(*)(C(F)(F)F)C(F)(F)F)cc%11)nc%10c9)(C(F)(F)F)C(F)(F)F)ccc8o7)cc6)(C(F)(F)F)C(F)(F)F)ccc5-4)cc3n1C2=O (repeat unit)
22 | 7.2 | 202 | 329 | 10.7 | 43.9 | *c1ccc2c(c1)C1c3ccccc3C2c2cc(N3C(=O)c4ccc(C(c5ccc6c(c5)C(=O)N(*)C6=O)(C(F)(F)F)C(F)(F)F)cc4C3=O)ccc21 (repeat unit)
23 | 0.56 | 26.6 |  | 1.04 | 5.68 | *c1ccc2c(c1)Oc1ccc(C3(c4ccc5c(c4)Oc4ccc(*)cc4O5)c4ccccc4-c4ccccc43)cc1O2 (repeat unit)
24 | 6.3 | 190 | 322 | 10 | 50 | *c1ccc2c(c1C)N1Cc3ccc(N4C(=O)c5ccc(C(c6ccc7c(c6)C(=O)N(*)C7=O)(C(F)(F)F)C(F)(F)F)cc5C4=O)c(C)c3N(C2)C1 (repeat unit)
25 | 5.6 | 190 | 210 | 7.3 | 32 | *c1cccc(-c2cc(C)c(-c3cccc(*)c3C)cc2C)c1C (repeat unit)
26 | 0.0018 | 0.16 | 0.615 | 0.0048 | 0.015 | *c1cccc(-c2nc3cc(-c4ccc5[nH]c(*)nc5c4)ccc3[nH]2)c1 (repeat unit)
27 | 0.0491 | 2.7 |  | 0.09 | 0.52 | *c1cccc(-c2nnc(*)n2-c2ccccc2)c1 (repeat unit)
28 | 1.41 | 66.3 |  | 2.37 | 12.5 | *c1cccc(C(c2cccc(-c3nnc(*)n3-c3ccc(O)cc3)c2)(C(F)(F)F)C(F)(F)F)c1 (repeat unit)
29 | 4.66 | 132 |  | 5.93 | 26.1 | *c1cccc(C(c2cccc(-c3nnc(*)n3-c3ccccc3)c2)(C(F)(F)F)C(F)(F)F)c1 (repeat unit)
30 | 0.08 | 5.1 |  | 0.261 | 1.8 | *c1cccc(C(c2cccc(N3C(=O)c4ccc(C(c5ccc6c(c5)C(=O)N(*)C6=O)(C(F)(F)F)C(F)(F)F)cc4C3=O)c2)(C(F)(F)F)C(F)(F)F)c1 (repeat unit)
31 | 0.0086 | 0.428 |  | 0.016 | 0.112 | *c1cccc(N2C(=O)c3ccc(C(=O)c4ccc5c(c4)C(=O)N(*)C5=O)cc3C2=O)c1 (repeat unit)
32 | 0.163 | 9.7 | 35.5 | 0.419 | 2.79 | *c1cccc(N2C(=O)c3ccc(C(c4ccc5c(c4)C(=O)N(*)C5=O)(C(F)(F)F)C(F)(F)F)cc3C2=O)c1 (repeat unit)
33 | 0.88 | 36.2 | 102 | 1.89 | 10.8 | *c1cccc(N2C(=O)c3ccc(C(c4ccc5c(c4)C(=O)N(*)C5=O)(C(F)(F)F)C(F)(F)F)cc3C2=O)c1C (repeat unit)
34 | 0.17 | 6.12 | 19 | 0.292 | 1.4 | *c1cccc(Oc2ccc(C(c3ccc(Oc4cccc(-n5c(=O)c6cc7c(=O)n(*)c(=O)c7cc6c5=O)c4)cc3)(C(F)(F)F)C(F)(F)F)cc2)c1 (repeat unit)
35 | 0.136 | 6 | 21 | 0.241 | 1.35 | *c1cccc(Oc2ccc(C(c3ccc(Oc4cccc(N5C(=O)c6ccc(C(c7ccc8c(c7)C(=O)N(*)C8=O)(C(F)(F)F)C(F)(F)F)cc6C5=O)c4)cc3)(C(F)(F)F)C(F)(F)F)cc2)c1 (repeat unit)

Row | Compound | CH4 permeability [Barrer] | CO2 permeability [Barrer] | H2 permeability [Barrer] | N2 permeability [Barrer] | O2 permeability [Barrer]
36 | */C(C)=C(/*)[Si](C)(C)CCCCCCCC (repeat unit) | 13 | 100 | 47 | 19 | 23
